Test results: US11414414B2, “Pyrroloquinoline quinone glycine betaine salt” (SHANGHAI XUANCHUANG BIOLOGICAL TECHNOLOGY CO., LTD., priority 2016, dated 2022)

Tests used:
[1] = system: CC14-induced acute liver injury model mice; assay: CC14-induced acute liver injury model: ALT, AST in serum, SOD, GSH-Px, MDA in liver homogenate; assay type: in vivo, Kunming mice; settings: for GSH-Px / MDA / SOD: liver homogenate, Mean ± SD; for GSH-Px / MDA / SOD / ALT / AST: 3 mg/kg by weight of PQQ, gavage once a day for 7 days; for ALT / AST: serum, 24 h after CC14, Mean ± SD
Experimental: Forty-eight male Kunming mice weighing 18-22 g were randomly divided into 4 groups: blank control group, CC14 model group, PQQ disodium salt group and PQQ betaine salt group, respectively, with 12 mice in each group.
On the 7th day after gavage for 1 h, the mice in CC14 model group, PQQ disodium salt group and PQQ betaine salt group were injected intraperitoneally with 0.25% CC14 peanut oil (10 mL/kg) once, resulting in acute liver injury models; while mice in the blank control group were injected intraperitoneally with peanut oil (10 mL/kg) once. Animals were sacrificed after orbital blood collection for 24 h. 0.5-1 mL blood was collected from the mouse orbit, serum was separated by static centrifugation, and ALT and AST levels in serum were measured by biochemical kits. Animals were sacrificed and livers were removed for preparing liver homogenate. Superoxide dismutase (SOD), glutathione peroxidase (GSH-Px) activity and malondialdehyde (MDA) content in liver homogenates were determined by biochemical kits.

[2] = system: scopolamine-induced memory disordered model mice; assay: Morris water maze spatial probe test in scopolamine-induced memory disordered mice; assay type: in vivo, Kunming mice; settings: for Latent period of crossing the original platform / Number of time of crossing platform: fifth day, Mean ± SD
Experimental: (§1) Fifty Kunming mice, weighing 18-22 g, were randomly divided into five groups: blank control group, model group, low-dose PQQ betaine salt group (1.5 mg/kg), high-dose PQQ betaine salt group (3 mg/kg) and positive control group (donepezil, 3 mg/kg), respectively, 10 mice in each group. Wherein the PQQ betaine salt used is a crystalline Form A of pyrroloquinoline quinone betaine salt prepared according to the method of example 1.
(§2) The blank control group and the model group were administered with distilled water by gavage, the low-dose PQQ betaine salt group, the high-dose group and positive control group were administered with drugs by gavage respectively, once a day. Learning and memory training was carried out on the fifth day of administration and for 5 days in total; the model group, the low-dose PQQ betaine salt group, the high-dose group and the positive control group were intraperitoneally injected with 2 mg/kg of scopolamine 20 minutes earlier before training to obtain memory disordered models, while the blank control group was injected with a corresponding volume of saline. Morris water maze experiment were carried out for 5 days in total, wherein, a place navigation test was carried out in the first 4 days in order to observe and record the time required for the experimental animals to seek and climb onto the platform, in order to test the learning ability of mice. On the fifth day, a spatial probe test was carried out, during the test, the platform was removed, the time (the latent period) when crossing the original platform position for the first time was recorded as well as the number of time of traversing the original platform position for the animal, in order to test the spatial memory capacity of the animal. The latent period and the number of time of traversing platforms were used as evaluation indexes to detect the improvement of learning and memory in dementia model mice.

[3] = Standing at room temperature (hygroscopicity observation); assay type: physicochemical; settings: room temperature (25° C., about 50% humidity), a period of time
[4] = Dynamic moisture sorption (DVS) hygroscopicity; assay type: physicochemical; settings: warehouse environment (humidity of 45%)
[5] = system: scopolamine-induced memory disordered model mice; assay: Morris water maze place navigation test in scopolamine-induced memory disordered mice; assay type: in vivo, Kunming mice; settings: for Latent period, the first day / Latent period, the fourth day / Latent period, the second day / Latent period, the third day: time to climb onto the platform, Mean ± SD
Experimental: as §1, §2

[6] = Illumination stability of the crystalline form (XRPD); settings: light intensity of 4500 lux, 5 and 10 days
Excerpt: An appropriate amount of sample of the crystalline Form A of pyrroloquinoline quinone betaine salt was subjected to a light intensity of 4500 lux, and after 5 and 10 days the sample was removed for XPRD testing (as shown in FIGS. 6 and 7) to examine the crystalline stability of the sample under illumination.

[7] = High humidity stability of the crystalline form (XRPD); settings: humidity of 92.5%, 5 days and 10 days
Excerpt: The appropriate amount of sample of the crystalline Form A of pyrroloquinoline quinone betaine salt is subjected to the humidity of 92.5%, and after 5 days and 10 days the samples were removed for XPRD testing (as shown in FIGS. 4 and 5) to examine the crystalline stability of the sample against humidity.

[8] = High temperature stability of the crystalline form (XRPD); settings: oven at 60° C., 5 days and 10 days
Experimental: An appropriate amount of sample of the crystalline Form A of Pyrroloquinoline Quinone Betaine Salt was placed in an oven at 60° C., and after 5 days and 10 days the sample was removed for XPRD testing (as shown in FIGS. 2 and 3) to examine the crystalline stability of the sample against temperature.

[9] = Solubility of saturated aqueous solution by UV absorbance at 450 nm
[10] = P<0.05 compared to the model group

## O=C([O-])c1cc(C(=O)[O-])c2c(n1)C(=O)C(=O)c1cc(C(=O)O)[nH]c1-2.[Na+].[Na+] [Disodium salt of PQQ, reference compound]
[1]
  GSH-Px: 93.4 ± 10.1^ΔΔ kU/g pro
  MDA: 2.71 ± 0.37^Δ nmol/L
  SOD: 29.5 ± 4.9^Δ kU/g pro
  ALT: 126.5 ± 27.0^ΔΔ IU/L
  AST: 115.4 ± 22.7^Δ IU/L

## COc1cc2c(cc1OC)C(=O)C(CC1CCN(Cc3ccccc3)CC1)C2 (centres unmarked) [Donepezil, donepezil, reference compound]
[2]; 3 mg/kg
  Latent period of crossing the original platform: 16.41 ± 7.60^ΔΔ s
  Number of time of crossing platform: 2.90 ± 0.57^ΔΔ

## C[N+](C)(C)CCO.C[N+](C)(C)CCO.C[N+](C)(C)CCO.O=C(O)c1cc(C(=O)O)c2c(n1)C(=O)C(=O)c1cc(C(=O)O)[nH]c1-2 [tricholine salt of PQQ]
[3]
  appearance after standing (hygroscopicity): became a sticky solid

## pyrroloquinoline quinone betaine salt [PQQ betaine salt]
[4]
  moisture sorption: 1.1%
[1]; 3 mg/kg, gavage, 7 days, overall conclusion
  effect on CC14-induced acute liver injury in mice: significantly improved
[1]
  GSH-Px: 93.5 ± 9.0^ΔΔ kU/g pro
  MDA: 2.61 ± 0.37^ΔΔ nmol/L
  SOD: 31.1 ± 4.5^ΔΔ kU/g pro
  ALT: 110.1 ± 26.0^ΔΔ IU/L
  AST: 110.0 ± 20.4^ΔΔ IU/L
[5]; 1.5 mg/kg gavage once a day
  Latent period, the first day: 74.30 ± 17.80 s
  Latent period, the fourth day: 50.80 ± 15.95 s
  Latent period, the second day: 62.90 ± 14.07 s
  Latent period, the third day: 51.90 ± 16.43 s
[5]; 3 mg/kg gavage once a day
  Latent period, the first day: 74.70 ± 16.94 s
  Latent period, the fourth day: 29.50 ± 12.29^ΔΔ s
  Latent period, the second day: 62.30 ± 13.84 s
  Latent period, the third day: 38.20 ± 14.01^Δ s
[5]; P<0.05 or P<0.01 compared with the model group
  latent period in place navigation compared with the model group: significantly shortened
[2]; 1.5 mg/kg
  Latent period of crossing the original platform: 25.48 ± 12.19^ΔΔ s
  Number of time of crossing platform: 2.20 ± 0.42^Δ
[2]; 3 mg/kg
  Latent period of crossing the original platform: 20.98 ± 9.44^ΔΔ s
  Number of time of crossing platform: 2.10 ± 0.57^Δ
[2]; [10]
  latent period in spatial search compared to the model group: reduced
  number of time of crossing platform compared to the model group: increased
[6]
  crystalline stability under illumination: stable
[7]
  crystalline stability against humidity: stable
[8]
  crystalline stability against temperature: stable
[9]
  Relative ratio (solubility): 1.50
[9]; saturated aqueous solution at 30° C., solubility of pyrroloquinoline quinone
  Solubility: 14.50 mM
